{"source": "paper PMC6928688", "about": "“Identification of Novel PI3Kδ Selective Inhibitors by SVM-Based Multistage Virtual Screening and Molecular Dynamics Simulations” (International Journal of Molecular Sciences, 2019)", "format_in_all_cases": "biochemical", "key": {"[1]": {"biological_target": "T1, recombinant PI3Kδ kinase (Homo sapiens, UniProt O00329)", "T1 sequence (O00329 whole entry)": "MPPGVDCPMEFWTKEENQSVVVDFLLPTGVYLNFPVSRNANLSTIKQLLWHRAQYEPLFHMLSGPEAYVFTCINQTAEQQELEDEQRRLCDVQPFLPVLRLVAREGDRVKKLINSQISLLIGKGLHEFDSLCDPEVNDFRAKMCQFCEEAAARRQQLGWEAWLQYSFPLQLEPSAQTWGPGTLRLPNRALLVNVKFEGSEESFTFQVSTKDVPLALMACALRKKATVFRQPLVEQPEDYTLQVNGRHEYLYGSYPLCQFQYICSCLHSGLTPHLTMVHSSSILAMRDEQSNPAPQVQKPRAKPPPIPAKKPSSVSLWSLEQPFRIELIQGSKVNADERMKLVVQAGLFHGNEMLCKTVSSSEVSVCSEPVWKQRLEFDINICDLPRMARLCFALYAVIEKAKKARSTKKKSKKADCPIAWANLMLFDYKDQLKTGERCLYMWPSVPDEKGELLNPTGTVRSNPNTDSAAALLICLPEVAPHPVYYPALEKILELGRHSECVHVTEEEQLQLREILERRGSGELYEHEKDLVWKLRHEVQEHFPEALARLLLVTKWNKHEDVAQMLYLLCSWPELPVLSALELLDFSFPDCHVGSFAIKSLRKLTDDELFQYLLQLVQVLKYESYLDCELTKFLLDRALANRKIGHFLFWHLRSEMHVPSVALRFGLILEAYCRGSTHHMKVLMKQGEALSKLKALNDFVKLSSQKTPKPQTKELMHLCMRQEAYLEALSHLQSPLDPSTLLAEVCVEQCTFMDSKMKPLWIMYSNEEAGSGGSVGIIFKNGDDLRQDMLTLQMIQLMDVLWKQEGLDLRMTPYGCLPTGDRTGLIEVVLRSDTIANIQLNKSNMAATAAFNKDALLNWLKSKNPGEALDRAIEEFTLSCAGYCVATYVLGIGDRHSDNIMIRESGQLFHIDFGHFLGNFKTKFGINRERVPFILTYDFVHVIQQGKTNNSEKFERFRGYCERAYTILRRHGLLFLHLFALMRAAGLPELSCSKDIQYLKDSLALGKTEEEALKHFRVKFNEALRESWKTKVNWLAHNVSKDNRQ", "T1 sequence (P27986 whole entry partner)": "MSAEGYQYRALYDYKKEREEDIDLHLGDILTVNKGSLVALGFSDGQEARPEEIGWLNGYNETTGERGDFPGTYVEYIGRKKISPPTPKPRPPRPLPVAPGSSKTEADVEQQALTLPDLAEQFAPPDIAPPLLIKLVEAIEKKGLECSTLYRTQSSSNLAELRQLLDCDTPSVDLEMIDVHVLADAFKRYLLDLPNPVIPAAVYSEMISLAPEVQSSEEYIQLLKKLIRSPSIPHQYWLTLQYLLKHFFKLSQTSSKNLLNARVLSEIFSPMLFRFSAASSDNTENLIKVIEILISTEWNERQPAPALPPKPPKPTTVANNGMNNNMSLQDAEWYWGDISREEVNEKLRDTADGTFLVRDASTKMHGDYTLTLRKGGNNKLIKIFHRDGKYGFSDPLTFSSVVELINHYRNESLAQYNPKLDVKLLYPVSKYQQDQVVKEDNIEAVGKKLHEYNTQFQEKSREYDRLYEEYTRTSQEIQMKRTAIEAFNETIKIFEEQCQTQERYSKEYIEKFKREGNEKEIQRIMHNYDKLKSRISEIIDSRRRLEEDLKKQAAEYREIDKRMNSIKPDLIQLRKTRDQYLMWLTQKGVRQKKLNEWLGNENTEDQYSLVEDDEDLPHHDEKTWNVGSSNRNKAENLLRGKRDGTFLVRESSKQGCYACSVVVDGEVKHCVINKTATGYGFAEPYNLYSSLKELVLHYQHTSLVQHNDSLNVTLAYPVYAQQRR", "experiment": "Cell free PI3Kδ kinase activity, ADP-Glo chemiluminescence assay", "description": "The chemiluminescence method was used to determine the inhibitory effect of the 15 hit compounds on PI3Kδ (Table 5). […] For 14317, the reason for its high activity was probably the long side chain on its guanine, which was the same as the reported PI3Kδ selective inhibitor Compound 1 (idelalisib) and Compound 7 (GNE-293). For Compounds 9 and 10, the reason the pyridazinone skeleton made them so active requires further study. Finally, the two compounds with the novel skeleton were selected for the subsequent molecular dynamics (MD) simulations. […]\nThe inhibitory activities of inhibitors against PI3Kδ were determined by the ADP-Glo assay. The recombinant PI3Kδ kinase was diluted to 2.2 μg/mL using reaction buffer (50 mM HEPES, pH 7.5, 10 mM MgCl2, 0.1 mg/mL BSA, 2 mM DTT, 1% DMSO), and ATP was diluted with reaction buffer (10 mM) to 250 μM, and the test compound and positive drug (idelalisib) were formulated into four concentration-gradient solutions (6 × 10^−2 M, 6 × 10^−4 M, 6 × 10^−6 M, 6 × 10^−8 M). The reaction was started by sequentially adding 2 μL of an ATP solution, 1 μL of a drug solution, and 2 μL of an enzyme solution in 96 wells. The assay was conducted for 1 h at 37 °C before the addition of 5 μL ADP-Glo reagent and incubation for 40 min at room temperature. A 10 μL amount of kinase detection reagent (Promega, Beijing, China) was added and incubated for 30 min at room temperature before the luminescence value was measured using a chemiluminescence module of a full-wavelength multi-function microplate reader (PerkinElmer, Singapore)."}, "[2]": {"biological_target": "PI3Kα (Homo sapiens, UniProt P42336)", "sequence (P42336 whole entry, species assumed, canonical isoform)": "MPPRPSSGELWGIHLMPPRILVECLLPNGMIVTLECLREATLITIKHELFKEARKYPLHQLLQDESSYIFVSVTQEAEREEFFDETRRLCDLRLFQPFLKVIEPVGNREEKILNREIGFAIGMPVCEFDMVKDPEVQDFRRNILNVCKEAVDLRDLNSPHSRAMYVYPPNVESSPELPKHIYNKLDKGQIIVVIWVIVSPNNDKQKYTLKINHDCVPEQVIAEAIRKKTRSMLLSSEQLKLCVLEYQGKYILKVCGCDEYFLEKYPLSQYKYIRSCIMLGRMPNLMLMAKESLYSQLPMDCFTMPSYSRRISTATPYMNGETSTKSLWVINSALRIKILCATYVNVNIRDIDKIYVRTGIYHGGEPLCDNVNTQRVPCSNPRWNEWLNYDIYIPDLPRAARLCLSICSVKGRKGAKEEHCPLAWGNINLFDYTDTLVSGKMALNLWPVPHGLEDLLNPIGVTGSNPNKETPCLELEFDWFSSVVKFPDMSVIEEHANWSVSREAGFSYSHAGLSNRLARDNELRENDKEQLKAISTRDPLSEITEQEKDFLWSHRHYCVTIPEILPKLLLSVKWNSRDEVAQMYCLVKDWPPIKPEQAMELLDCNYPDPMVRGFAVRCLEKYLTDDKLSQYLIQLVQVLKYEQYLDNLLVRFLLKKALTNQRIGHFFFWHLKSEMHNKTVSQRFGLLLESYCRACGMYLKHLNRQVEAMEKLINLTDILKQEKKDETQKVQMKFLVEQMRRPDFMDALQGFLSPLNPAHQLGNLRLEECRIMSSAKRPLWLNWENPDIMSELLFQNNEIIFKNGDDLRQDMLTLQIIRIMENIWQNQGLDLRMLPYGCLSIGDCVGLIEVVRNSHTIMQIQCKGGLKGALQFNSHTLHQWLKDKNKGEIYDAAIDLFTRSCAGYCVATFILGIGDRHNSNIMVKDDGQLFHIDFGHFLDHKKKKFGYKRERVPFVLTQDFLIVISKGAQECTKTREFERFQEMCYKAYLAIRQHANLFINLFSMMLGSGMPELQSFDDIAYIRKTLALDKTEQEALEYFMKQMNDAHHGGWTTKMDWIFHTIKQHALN", "sequence (P27986 whole entry partner, species assumed, canonical isoform)": "as the sequence (P27986 whole entry partner) above", "experiment": "PI3K isoform selectivity, chemiluminescence kinase assay (α)", "conditions": "isoform selectivity experiment"}, "[3]": {"biological_target": "PI3Kβ (Homo sapiens, UniProt P42338)", "sequence (P42338 whole entry, canonical isoform)": "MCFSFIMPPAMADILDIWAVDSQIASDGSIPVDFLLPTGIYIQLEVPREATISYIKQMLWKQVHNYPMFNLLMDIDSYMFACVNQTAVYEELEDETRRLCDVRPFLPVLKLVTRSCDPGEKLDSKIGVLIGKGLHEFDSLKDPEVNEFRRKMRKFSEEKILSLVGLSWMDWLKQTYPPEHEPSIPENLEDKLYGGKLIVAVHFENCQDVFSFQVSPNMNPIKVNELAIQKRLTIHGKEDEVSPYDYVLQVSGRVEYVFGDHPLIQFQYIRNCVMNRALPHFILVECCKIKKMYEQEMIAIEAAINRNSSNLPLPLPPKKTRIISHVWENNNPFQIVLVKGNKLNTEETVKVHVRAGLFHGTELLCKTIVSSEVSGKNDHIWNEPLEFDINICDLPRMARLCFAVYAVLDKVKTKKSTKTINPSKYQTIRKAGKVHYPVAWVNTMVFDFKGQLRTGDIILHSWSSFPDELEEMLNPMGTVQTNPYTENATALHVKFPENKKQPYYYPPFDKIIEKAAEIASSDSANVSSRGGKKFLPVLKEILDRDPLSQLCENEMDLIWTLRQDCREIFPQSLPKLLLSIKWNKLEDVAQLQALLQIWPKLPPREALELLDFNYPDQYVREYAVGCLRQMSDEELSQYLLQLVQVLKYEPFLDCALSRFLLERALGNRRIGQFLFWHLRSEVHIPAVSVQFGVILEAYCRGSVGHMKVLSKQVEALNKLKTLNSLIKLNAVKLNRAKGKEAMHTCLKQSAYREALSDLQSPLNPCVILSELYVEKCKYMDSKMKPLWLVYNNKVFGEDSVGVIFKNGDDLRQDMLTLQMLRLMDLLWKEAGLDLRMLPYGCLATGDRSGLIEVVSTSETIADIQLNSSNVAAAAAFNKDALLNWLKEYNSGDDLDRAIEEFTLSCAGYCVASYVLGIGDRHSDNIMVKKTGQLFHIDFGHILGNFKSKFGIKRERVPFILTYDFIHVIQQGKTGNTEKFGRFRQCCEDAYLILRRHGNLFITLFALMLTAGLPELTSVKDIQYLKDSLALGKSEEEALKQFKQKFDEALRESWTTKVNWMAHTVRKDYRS", "sequence (P27986 whole entry partner, canonical isoform)": "as the sequence (P27986 whole entry partner) above", "experiment": "PI3K isoform selectivity, chemiluminescence kinase assay (β)", "conditions": "isoform selectivity experiment"}, "[4]": {"biological_target": "PI3Kγ (Homo sapiens, UniProt P48736)", "sequence (P48736 whole entry, canonical isoform)": "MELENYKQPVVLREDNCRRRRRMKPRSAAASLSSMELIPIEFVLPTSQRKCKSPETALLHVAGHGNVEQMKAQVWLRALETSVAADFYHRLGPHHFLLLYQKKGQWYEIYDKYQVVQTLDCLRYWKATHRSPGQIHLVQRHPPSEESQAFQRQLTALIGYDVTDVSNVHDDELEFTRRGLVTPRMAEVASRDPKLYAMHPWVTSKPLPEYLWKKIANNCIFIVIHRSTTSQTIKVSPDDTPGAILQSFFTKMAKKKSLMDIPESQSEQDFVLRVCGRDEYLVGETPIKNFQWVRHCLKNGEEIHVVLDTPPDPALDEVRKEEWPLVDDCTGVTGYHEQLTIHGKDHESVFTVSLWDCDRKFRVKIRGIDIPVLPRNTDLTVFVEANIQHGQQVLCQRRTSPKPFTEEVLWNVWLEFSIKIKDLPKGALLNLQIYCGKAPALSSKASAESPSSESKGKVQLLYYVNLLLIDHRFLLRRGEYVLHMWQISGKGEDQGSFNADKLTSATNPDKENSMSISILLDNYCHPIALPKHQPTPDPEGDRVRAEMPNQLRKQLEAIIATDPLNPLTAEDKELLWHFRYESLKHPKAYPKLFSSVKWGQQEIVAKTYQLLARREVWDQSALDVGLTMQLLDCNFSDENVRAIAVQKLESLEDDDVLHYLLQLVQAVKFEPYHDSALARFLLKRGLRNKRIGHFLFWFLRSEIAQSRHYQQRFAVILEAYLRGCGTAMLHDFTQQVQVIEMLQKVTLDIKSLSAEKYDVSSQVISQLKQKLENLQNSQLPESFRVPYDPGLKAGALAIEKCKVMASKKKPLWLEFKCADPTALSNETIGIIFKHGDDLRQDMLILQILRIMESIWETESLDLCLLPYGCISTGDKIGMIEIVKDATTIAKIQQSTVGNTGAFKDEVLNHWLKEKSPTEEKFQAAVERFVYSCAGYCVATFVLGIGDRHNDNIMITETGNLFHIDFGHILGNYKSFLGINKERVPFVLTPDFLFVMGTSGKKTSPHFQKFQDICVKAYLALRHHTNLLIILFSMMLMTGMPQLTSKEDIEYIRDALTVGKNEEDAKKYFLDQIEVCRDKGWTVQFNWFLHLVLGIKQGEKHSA", "experiment": "PI3K isoform selectivity, chemiluminescence kinase assay (γ)", "conditions": "isoform selectivity experiment"}, "[5]": {"biological_target": "T1, recombinant PI3Kδ kinase", "experiment": "Cell free PI3Kδ kinase activity, ADP-Glo chemiluminescence assay", "conditions": "PI3Kδ versus α, β, γ"}, "[6]": {"conditions": "15 hit compounds from NCI database, chemiluminescence method, read-out: PI3Kδ IC50"}}, "note": "Entries after “also recorded” stand apart in the source; their conditions may differ. Like-named read-outs stand apart in the source and are kept apart here."}
{"smiles": "CC/C(=N\\Nc1cn[nH]c(=O)c1Br)c1ccccc1", "note": "[Compound 9]", "values": [{"measurement": "IC50", "setting": "[1]; [6]", "value": 72.2, "unit": "µM"}]}
{"smiles": "C/C(=N\\Nc1cn[nH]c(=O)c1Br)c1ccccc1", "note": "[Compound 10]", "values": [{"measurement": "IC50", "setting": "[1]; [6]", "value": 18.9, "unit": "µM"}, {"measurement": "IC50", "setting": "[2]", "value": 75, "unit": "µM"}, {"measurement": "IC50", "setting": "[3]", "value": 188, "unit": "µM"}, {"measurement": "IC50", "setting": "[4]", "value": 226, "unit": "µM"}, {"measurement": "PI3K isoform selectivity", "setting": "[5]", "value": "significant selectivity; also recorded: high isoform selectivity"}]}
{"smiles": "CCN(CC)CCOc1nc2c(c(=O)n(C)c(=O)n2C)n1C", "note": "[Compound 14317]", "values": [{"measurement": "IC50", "setting": "[1]; [6]", "value": 28.1, "unit": "µM"}]}
{"smiles": "CCOC(=O)c1cc(Sc2ccccc2)nc2ccccc12", "note": "[Compound 25679]", "values": [{"measurement": "IC50", "setting": "[1]; [6]", "value": 289, "unit": "µM"}]}
{"smiles": "COc1c2c(c3c(c1OC)c(=O)c1ccccc1n3C)OCO2", "note": "[Compound 34758]", "values": [{"measurement": "IC50", "setting": "[1]; [6]", "value": 481, "unit": "µM"}]}
{"smiles": "CCOC(=O)Nc1ccc2c(c1Cl)C(=O)c1ccccc1C2=O", "note": "[Compound 39951]", "values": [{"measurement": "IC50", "setting": "[1]; [6]", "value": 522, "unit": "µM"}]}
{"smiles": "CC(=O)Nc1cc2c(cc1Cl)-c1ccc(Cl)cc1C2=O", "note": "[Compound 57442]", "values": [{"measurement": "IC50", "setting": "[1]; [6]", "value": 500, "unit": "µM"}]}
{"smiles": "CC(=O)Nc1cc2c(cc1Br)-c1ccc(F)cc1C2=O", "note": "[Compound 73075]", "values": [{"measurement": "IC50", "setting": "[1]; [6]", "value": 248, "unit": "µM"}]}
{"smiles": "O=C1c2ccccc2-c2cc(Br)c(NC(=O)C(F)(F)F)cc21", "note": "[Compound 80144]", "values": [{"measurement": "IC50", "setting": "[1]; [6]", "value": 809, "unit": "µM"}]}
{"smiles": "COc1cc(OC)c(OC)cc1/C=C/c1ccnc2ccccc12", "note": "[Compound 80756]", "values": [{"measurement": "IC50", "setting": "[1]; [6]", "value": 192, "unit": "µM"}]}
{"smiles": "CSc1cc2c(cc1NC(C)=O)C(=O)c1cc(F)ccc1-2", "note": "[Compound 109638]", "values": [{"measurement": "IC50", "setting": "[1]; [6]", "value": 169, "unit": "µM"}]}
{"smiles": "O=c1cc(N2CCOCC2)oc2c(-c3ccccc3)cccc12", "note": "[LY294002, reference compound]", "values": [{"measurement": "IC50", "setting": "[1]; read-out: PI3K IC50 δ", "value": 3.49, "unit": "µM"}]}
